Values of other authors in patent US20140023695A1, “PATCH PREPARATION” (priority 2011, published 2014).

What was measured:
[1] = target: dopamine D2 (Homo sapiens, UniProt P14416); details: as compared to existing antipsychotic, haloperidol
[2] = system: serotonin 5-HT2 receptor; details: as compared to existing antipsychotic, haloperidol

Sequence of dopamine D2 (P14416 whole entry): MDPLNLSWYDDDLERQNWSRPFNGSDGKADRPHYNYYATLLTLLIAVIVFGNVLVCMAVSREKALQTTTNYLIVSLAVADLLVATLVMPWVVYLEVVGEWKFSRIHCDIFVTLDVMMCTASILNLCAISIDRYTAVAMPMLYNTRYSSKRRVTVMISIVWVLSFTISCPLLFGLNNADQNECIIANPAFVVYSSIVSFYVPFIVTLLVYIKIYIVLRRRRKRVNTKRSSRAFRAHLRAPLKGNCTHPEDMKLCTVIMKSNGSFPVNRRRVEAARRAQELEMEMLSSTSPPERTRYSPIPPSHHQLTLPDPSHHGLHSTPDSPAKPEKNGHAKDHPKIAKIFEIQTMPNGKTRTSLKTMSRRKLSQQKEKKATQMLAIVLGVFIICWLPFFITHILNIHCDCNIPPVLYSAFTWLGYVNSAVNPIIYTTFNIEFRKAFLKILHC

affinity for dopamine D2 [1]: higher affinity
affinity for serotonin 5-HT2 receptor [2]: higher affinity
SMILES: CCN1CCN(c2cc(-c3ccc(F)cc3)c3c(n2)CCCCCC3)CC1 [compound A, 2-(4-Ethyl-1-piperazinyl)-4-(4-fluorophenyl)-5,6,7,8,9,10-hexahydrocycloocta[b]pyridine]
